Activity calls are given as the source filed them. How the calls were made is not given here.
System: CCRIS mutagenicity, Ames/micronucleus/aberration tests
Assay: CCRIS mutagenicity studies
[1] = Test System: AMES SALMONELLA TYPHIMURIUM, Strain/Indicator: TA98, Metabolic Activation: NONE, Method: STANDARD PLATE
[2] = Test System: AMES SALMONELLA TYPHIMURIUM, Strain/Indicator: TA98, Metabolic Activation: RAT, LIVER, S-9, AROCLOR 1254, Method: STANDARD PLATE
[3] = Test System: AMES SALMONELLA TYPHIMURIUM, Strain/Indicator: TA100, Metabolic Activation: NONE, Method: STANDARD PLATE
[4] = Test System: AMES SALMONELLA TYPHIMURIUM, Strain/Indicator: TA100, Metabolic Activation: RAT, LIVER, S-9, AROCLOR 1254, Method: STANDARD PLATE
[5] = Test System: AMES SALMONELLA TYPHIMURIUM, Strain/Indicator: TA102, Metabolic Activation: NONE, Method: STANDARD PLATE
[6] = Test System: AMES SALMONELLA TYPHIMURIUM, Strain/Indicator: TA102, Metabolic Activation: RAT, LIVER, S-9, AROCLOR 1254, Method: STANDARD PLATE
[7] = Test System: E. COLI, Strain/Indicator: WP2 UVRA, Metabolic Activation: NONE, Method: STANDARD PLATE
[8] = Test System: E. COLI, Strain/Indicator: WP2 UVRA, Metabolic Activation: RAT, LIVER, S-9, AROCLOR 1254, Method: STANDARD PLATE
[9] = Test System: AMES SALMONELLA TYPHIMURIUM, Strain/Indicator: TA98, Metabolic Activation: NONE, Method: PREINCUBATION
[10] = Test System: AMES SALMONELLA TYPHIMURIUM, Strain/Indicator: TA100, Metabolic Activation: NONE, Method: PREINCUBATION

Q: How did the mutagenic call [1] turn out when `Clc1ccc2c(c1)C(c1ccccc1)=NCc1nncn1-2` was run?
A: Its mutagenic call is “inactive; negative”.

Q: What about the mutagenic call [2] of the same compound?
A: The mutagenic call was “inactive; negative”.

Q: And the mutagenic call [3]?
A: Its mutagenic call is “inactive; negative”.

Q: And the mutagenic call [4]?
A: Its mutagenic call is “inactive; negative”.

Q: What about the mutagenic call [5] of the same compound?
A: Its mutagenic call is “inactive; negative”.

Q: What about the mutagenic call [6] of the same compound?
A: Its mutagenic call is “inactive; negative”.

Q: And the mutagenic call (Test System: AMES SALMONELLA TYPHIMURIUM, Strain/Indicator: TA1535, Metabolic Activation: NONE, Method: STANDARD PLATE)?
A: The mutagenic call was “inactive; negative”.

Q: And the mutagenic call (Test System: AMES SALMONELLA TYPHIMURIUM, Strain/Indicator: TA1535, Metabolic Activation: RAT, LIVER, S-9, AROCLOR 1254, Method: STANDARD PLATE)?
A: Its mutagenic call is “inactive; negative”.

Q: What about the mutagenic call (Test System: AMES SALMONELLA TYPHIMURIUM, Strain/Indicator: TA1537, Metabolic Activation: NONE, Method: STANDARD PLATE) of the same compound?
A: The mutagenic call was “inactive; negative”.

Q: And the mutagenic call (Test System: AMES SALMONELLA TYPHIMURIUM, Strain/Indicator: TA1537, Metabolic Activation: RAT, LIVER, S-9, AROCLOR 1254, Method: STANDARD PLATE)?
A: Its mutagenic call is “inactive; negative”.

Q: And the mutagenic call [7]?
A: The mutagenic call was “inactive; negative”.

Q: What about the mutagenic call [8] of the same compound?
A: Its mutagenic call is “inactive; negative”.

Q: For `O=C(O)Cc1ccc(Cl)cc1`, which mutagenic call [9] is on record?
A: Its mutagenic call is “inactive; negative”.

Q: And the mutagenic call (Test System: AMES SALMONELLA TYPHIMURIUM, Strain/Indicator: TA98, Metabolic Activation: RAT LIVER S-9, PCB, Method: PREINCUBATION)?
A: The mutagenic call was “inactive; negative”.

Q: What about the mutagenic call [10] of the same compound?
A: Its mutagenic call is “inactive; negative”.

Q: What about the mutagenic call (Test System: AMES SALMONELLA TYPHIMURIUM, Strain/Indicator: TA100, Metabolic Activation: RAT LIVER S-9, PCB, Method: PREINCUBATION) of the same compound?
A: Its mutagenic call is “inactive; negative”.

Q: What about the mutagenic call (Test System: AMES SALMONELLA TYPHIMURIUM, Strain/Indicator: TA104, Metabolic Activation: NONE, Method: PREINCUBATION) of the same compound?
A: The mutagenic call was “inactive; negative”.

Q: And the mutagenic call (Test System: AMES SALMONELLA TYPHIMURIUM, Strain/Indicator: TA104, Metabolic Activation: RAT LIVER S-9, PCB, Method: PREINCUBATION)?
A: Its mutagenic call is “inactive; negative”.

Q: What about the mutagenic call (Test System: E.COLI, Strain/Indicator: WP2 UVRA, Metabolic Activation: NONE, Method: PREINCUBATION) of the same compound?
A: The mutagenic call was “inactive; negative”.

Q: What about the mutagenic call (Test System: E.COLI, Strain/Indicator: WP2 UVRA, Metabolic Activation: RAT LIVER S-9, PCB, Method: PREINCUBATION) of the same compound?
A: The mutagenic call was “inactive; negative”.

Q: `N#Cc1c(Cl)cccc1Cl` was tested. Which mutagenic call (Test System: AMES SALMONELLA TYPHIMURIUM, Strain/Indicator: TA97, Metabolic Activation: NONE, Method: STANDARD PLATE) did it give?
A: The mutagenic call was “inactive; negative”.

Q: What about the mutagenic call (Test System: AMES SALMONELLA TYPHIMURIUM, Strain/Indicator: TA97, Metabolic Activation: RAT, LIVER, S-9, AROCLOR 1254, Method: STANDARD PLATE) of the same compound?
A: The mutagenic call was “inactive; negative”.

Q: And the mutagenic call [1]?
A: Its mutagenic call is “inactive; negative”.

Q: And the mutagenic call [2]?
A: Its mutagenic call is “inactive; negative”.

Q: What about the mutagenic call [3] of the same compound?
A: The mutagenic call was “inactive; negative”.

Q: And the mutagenic call [4]?
A: The mutagenic call was “inactive; negative”.

Q: What about the mutagenic call [5] of the same compound?
A: The mutagenic call was “inactive; negative”.

Q: And the mutagenic call [6]?
A: The mutagenic call was “inactive; negative”.

Q: For `Nc1ccc(/C=C/c2ccc([N+](=O)[O-])cc2)cc1`, which mutagenic call (Test System: AMES SALMONELLA TYPHIMURIUM, Strain/Indicator: TA98 (NR), Metabolic Activation: NONE, Method: STANDARD PLATE) is on record?
A: The mutagenic call was “inactive; negative”.

Q: And the mutagenic call (Test System: AMES SALMONELLA TYPHIMURIUM, Strain/Indicator: TA98 (NR), Metabolic Activation: S-9, Method: STANDARD PLATE)?
A: Its mutagenic call is “active; positive”.

Q: What about the mutagenic call [1] of the same compound?
A: The mutagenic call was “active; positive”.

Q: And the mutagenic call (Test System: AMES SALMONELLA TYPHIMURIUM, Strain/Indicator: TA98, Metabolic Activation: S-9, Method: STANDARD PLATE)?
A: Its mutagenic call is “active; positive”.

Q: What about the mutagenic call (Test System: AMES SALMONELLA TYPHIMURIUM, Strain/Indicator: TA100 (NR), Metabolic Activation: NONE, Method: STANDARD PLATE) of the same compound?
A: The mutagenic call was “inactive; negative”.

Q: What about the mutagenic call (Test System: AMES SALMONELLA TYPHIMURIUM, Strain/Indicator: TA100 (NR), Metabolic Activation: S-9, Method: STANDARD PLATE) of the same compound?
A: The mutagenic call was “active; positive”.

Q: What about the mutagenic call [3] of the same compound?
A: The mutagenic call was “inactive; negative”.

Q: And the mutagenic call (Test System: AMES SALMONELLA TYPHIMURIUM, Strain/Indicator: TA100, Metabolic Activation: S-9, Method: STANDARD PLATE)?
A: Its mutagenic call is “active; positive”.

Q: What does the source list for `COc1ccc(N)c(C)c1`?
A: mutagenic call (Test System: AMES SALMONELLA TYPHIMURIUM, Strain/Indicator: TA98, Metabolic Activation: HAMSTER, LIVER, S-9, AROCLOR 1254 (30%), Method: PREINCUBATION): inactive; negative; mutagenic call [9]: inactive; negative; mutagenic call (Test System: AMES SALMONELLA TYPHIMURIUM, Strain/Indicator: TA98, Metabolic Activation: RAT, LIVER, S-9, AROCLOR 1254 (30%), Method: PREINCUBATION): inactive; negative; mutagenic call (Test System: AMES SALMONELLA TYPHIMURIUM, Strain/Indicator: TA100, Metabolic Activation: HAMSTER, LIVER, S-9, AROCLOR 1254 (30%), Method: PREINCUBATION): active; positive; mutagenic call [10]: inactive; negative; mutagenic call (Test System: AMES SALMONELLA TYPHIMURIUM, Strain/Indicator: TA100, Metabolic Activation: RAT, LIVER, S-9, AROCLOR 1254 (30%), Method: PREINCUBATION): inactive; negative; mutagenic call (Test System: E. COLI, Strain/Indicator: WP2 UVRA, Metabolic Activation: HAMSTER, LIVER, S-9, AROCLOR 1254, Method: STANDARD PLATE): inactive; negative; mutagenic call (Test System: E. COLI, Strain/Indicator: WP2 UVRA, Metabolic Activation: HAMSTER, LIVER, S-9, Method: STANDARD PLATE): inactive; negative; mutagenic call (Test System: E. COLI, Strain/Indicator: WP2 UVRA, Metabolic Activation: MOUSE, LIVER, S-9, AROCLOR 1254, Method: STANDARD PLATE): inactive; negative; mutagenic call (Test System: E. COLI, Strain/Indicator: WP2 UVRA, Metabolic Activation: MOUSE, LIVER, S-9, Method: STANDARD PLATE): inactive; negative; mutagenic call [7]: inactive; negative; mutagenic call [8]: inactive; negative; mutagenic call (Test System: E. COLI, Strain/Indicator: WP2 UVRA, Metabolic Activation: RAT, LIVER, S-9, Method: STANDARD PLATE): inactive; negative

Q: `CCCC[C@@H](C)[C@@H](OC(=O)C[C@@H](CC(=O)O)C(=O)O)[C@H](C[C@@H](C)CCCCCC[C@@H](O)C[C@H](O)[C@H](C)N)OC(=O)C[C@@H](CC(=O)O)C(=O)O` was tested. Which mutagenic call (Test System: AMES SALMONELLA TYPHIMURIUM, Strain/Indicator: TA97A, Metabolic Activation: NONE, Method: STANDARD PLATE) did it give?
A: The mutagenic call was “inactive; negative”.

Q: And the mutagenic call (Test System: AMES SALMONELLA TYPHIMURIUM, Strain/Indicator: TA97A, Metabolic Activation: RAT, LIVER, S-9, AROCLOR 1254, Method: STANDARD PLATE)?
A: The mutagenic call was “inactive; negative”.

Q: What about the mutagenic call [1] of the same compound?
A: Its mutagenic call is “inactive; negative”.

Q: And the mutagenic call [2]?
A: Its mutagenic call is “inactive; negative”.

Q: What about the mutagenic call [3] of the same compound?
A: Its mutagenic call is “inactive; negative”.

Q: What about the mutagenic call [4] of the same compound?
A: Its mutagenic call is “inactive; negative”.

Q: What about the mutagenic call [5] of the same compound?
A: Its mutagenic call is “inactive; negative”.

Q: And the mutagenic call [6]?
A: Its mutagenic call is “inactive; negative”.
